The source of these data is US20200345049A1, “COMPOSITIONS” (Givaudan, S.A., priority 2017, published 2020).

Common to all, as to type: in vivo, human
For assay [1], the system named is sweet sensitive taste panel. Put plainly: Sweetness ranking against sucrose solutions to determine sucrose equivalence. The source says: The term “sucrose equivalence” refers to the equivalence in sweetness of a composition containing at least one non-sucrose sweetener to a reference sucrose solution. Typically, taste panellists are trained to detect sweetness of reference sucrose solutions containing between 1% and 15% sucrose (w/v). Other non-sucrose sweeteners may then be tasted at a series of dilutions to determine the concentration of the non-sucrose sweetener that is as sweet (i.e. isosweet) to a given sucrose reference. The term “isosweet” refers to compositions that have equivalent sweetness. Typically, the sweetness of a given composition is measured with reference to a solution of sucrose. See “A Systematic Study of Concentration-Response Relationships of Sweeteners,” G. E. DuBois, D. E. Walters, S. S. Schiffman, Z. S. Warwick, B. J. Booth, S. D. Pecore, K. Gibes, B. T. Carr, and L. M. Brands, in Sweeteners: Discovery, Molecular Design and Chemoreception, D. E. Walters, F. T. Orthoefer, and G. E. DuBois, Eds., American Chemical Society, Washington, D.C. (1991), pp 261-276.
A sweet sensitive taste panel ranked the sweetness of solutions of a mixture of sweeteners (“Mixture 1”) in relation to sucrose solutions at a range of concentrations to determine sucrose equivalence. Mixture 1 was a combination of fractions 11 to 18 of Example 2 and contained 8.16 wt % 11-O-mogroside V and 61.6 wt % mogroside V. The results are shown in Table 6 below.
A sweet sensitive taste panel ranked the sweetness of solutions of various sweeteners (mogroside V, mogroside IV, siamenoside, neomogroside, 11-O-mogroside V) in relation to sucrose solutions at a range of concentrations to determine sucrose equivalence. The sweeteners were obtained using an Agilent 1100 preparative HPLC system with a Phenomenex Luna C18 (2) column (5 μm, 210×21.4 mm).

Assay [2] deals with sweet sensitive taste panel. Put plainly: Sweetness enhancement: sweetener added to 5% (w/v) sucrose, ranked against 5, 6, 6.5 and 7% (w/v) sucrose solutions. The following applies: for Average Score: ranked against 5, 6, 6.5 and 7% sucrose; for Sweetness enhancer effect: increase in sweetness of 5% (w/v) sucrose greater than sweetness of the sweetener alone. The method, then:
This solution was then ranked against 5, 6, 6.5 and 7% (w/v) sucrose solutions. This was repeated for 45 ppm Luo Han Guo extract. The average score of each solution was determined. […] These solutions were then ranked against 5, 6, 6.5 and 7% (w/v) sucrose solutions. The average score of each solution was determined.

Assay [3] deals with expert panel of three people (trained flavourists). Briefly: Descriptive taste test in 5% sucrose and 0.03% citric acid compared to Luo Han Guo extract. The following applies: for Taste description: added to 5% sucrose and 0.03% citric acid; for Sweet quality compared to Luo Han Guo extract: in 5% sucrose and 0.03% citric acid. The method, then: The taste of various concentrations of mixture 1 was tested by an expert panel of three people (trained flavourists) in solutions containing 5% sucrose and 0.03% citric acid. The taste was compared to the Luo Han Guo extract used in Example 2 (obtained from Azile LCC (Rolling Hills Est, California) (extract 1 of Example 1 above) and containing about 68 wt % mogrosides) (combined with the same 5% sucrose and 0.03% citric acid solution).
The taste of these sweeteners was tested by an expert panel of three people (trained flavourists) in solutions containing 5% sucrose and 0.03% citric acid. The taste was compared to the Luo Han Guo extract used in Example 2 (obtained from Azile LCC (Rolling Hills Est, California) (extract 1 of Example 1 above) and containing about 68 wt % mogrosides).

Assay [4] concerns expert panel of seven people. Put plainly: Scoring of sweet taste aspects versus base solution (5% sucrose and 0.03% citric acid). The following applies: for Astringent, average score / Lingering Sweet, average score / Overall Sweet, average score / Upfront Sweet, average score / Volatile Off-Note, average score: score versus base, 0 same, 3 much higher, −3 much lower.
Assay [5] has as its system Four sweet sensitive panelists. Briefly: Iso-sweet potency versus standard sucrose solutions. The method, then:
10 mg iso-mogroside VI (FIG. 7) was dissolved in […] water to make 100 ppm iso-mogroside VI solution. The working solution of 11-epi-mogroside V (FIG. 8) was 374 ppm (9.34 mg 11-epi-mogroside V in 25 mL water), A series of standard sucrose solutions were prepared (0.50, 0.75, 1.00, 1.25, 1.50%) as sweetness references.
Four sweet sensitive panelists evaluated 100 ppm iso-mogroside VI and 374 ppm 11-epi-mogroside V and the sucrose standards, and were asked to give sweet equivalence concentrations to sucrose. The mean sweet equivalence concentrations of each compound were used to calculate the iso-sweet potency.

“And” between values parts separate entries of the source, which are not always exact repeats. Equal values may be shown once.

Turning to `C[C@H](CC[C@@H](O[C@@H]1O[C@H](CO[C@@H]2O[C@H](CO)[C@@H](O)[C@H](O)[C@H]2O)[C@@H](O)[C@H](O)[C@H]1O[C@@H]1O[C@H](CO)[C@@H](O)[C@H](O)[C@H]1O)C(C)(C)O)[C@H]1CC[C@@]2(C)[C@H]3CC=C4[C@@H](CC[C@H](O[C@@H]5O[C@H](CO)[C@@H](O)[C@H](O)[C@H]5O)C4(C)C)[C@]3(C)[C@H](O)C[C@]12C` [Siamenoside], the “Total of sweetness ranks” value in assay [1] (Table 11, Siamenoside 20 ppm, 7 panelists) is on record as 19. The “Sweetness rank by panelist” value in assay [1] (Table 11, Siamenoside 25 ppm) is 2 and 3 and 4. Moreover, the “Total of sweetness ranks” value in assay [1] (Table 11, Siamenoside 25 ppm, 7 panelists) turned out to be 19. In addition, in assay [2] (25 ppm in 5% (w/v) sucrose), the “Average Score” value is 6.4. Also, the Sweetness enhancer effect result in assay [2] is recorded as “act as sweetness enhancers”. In assay [3], the Taste description result was “more sweet body, sweeter, rounder with a little more upfront and more round lasting sweet”; the “Sweet quality compared to Luo Han Guo extract” value is recorded as “better than Luo Han Guo extract in terms of sweet quality”. Further, in assay [4] (Table 16, 25 ppm), the “Astringent, average score” value is 0.4; the “Lingering Sweet, average score” value worked out at 0.6; the “Overall Sweet, average score” value is 1.8; the “Upfront Sweet, average score” value was 1.4. Also, the “Volatile Off-Note, average score” value in assay [4] (Table 16, 25 ppm) is on record as 0.2.

Turning to “3-O-β-D-glucopyranosyl(1→6)-β-D-glucopyranosyl-mogrol-24-O-β-D-glucopyranosyl-(1→6-[β-D-glucopyranosyl-(1→4)-β-D-glucopyranosyl-(1→2)]-β-D-glucopyranosyl [iso-mogroside VI]”, in assay [5] (100 ppm in water), the “Sweet equivalence concentration to sucrose” value was found to be 0.91 % sucrose. For the same compound, in assay [5] (calculated from mean sweet equivalence concentrations), the Iso-sweet potency is given as 91 times of sweetness of sucrose. In addition, in assay [4] (Table 20, 25 ppm in 5% sucrose and 0.03% citric acid), the Comments result is given as “Slightly acidic”. In assay [4] (Table 20, 25 ppm), the “Astringent, average score” value was found to be 0; the “Lingering Sweet, average score” value turned out to be 0.2; the “Overall Sweet, average score” value came out at 0.2; the “Upfront Sweet, average score” value is on record as 0.2. Besides, the “Volatile Off-Note, average score” value in assay [4] (Table 20, 25 ppm) amounted to 0.

For `C[C@H](CC[C@@H](O[C@@H]1O[C@H](CO)[C@@H](O)[C@H](O)[C@H]1O[C@@H]1O[C@H](CO)[C@@H](O)[C@H](O)[C@H]1O)C(C)(C)O)[C@H]1CC[C@@]2(C)[C@H]3CC=C4[C@@H](CC[C@H](O[C@@H]5O[C@H](CO[C@@H]6O[C@H](CO)[C@@H](O)[C@H](O)[C@H]6O)[C@@H](O)[C@H](O)[C@H]5O)C4(C)C)[C@]3(C)[C@H](O)C[C@]12C` [Mogroside IV], the “Total of sweetness ranks” value in assay [1] (Table 10, 25 ppm Mogroside IV, 7 panelists) is reported as 13. In addition, in assay [1] (Table 10, 30 ppm Mogroside IV, 7 panelists), the “Total of sweetness ranks” value was 20. Also, the “Average Score” value in assay [2] (30 ppm in 5% (w/v) sucrose) was found to be 6.2. Besides, in assay [3], the Taste description result was “good and similar sweetness as mogroside V”; the “Sweet quality compared to Luo Han Guo extract” value was “better than Luo Han Guo extract in terms of sweet quality”. In assay [4] (Table 16, 30 ppm), the “Astringent, average score” value is 0; the “Lingering Sweet, average score” value came out at 0; the “Overall Sweet, average score” value is 0.4; the “Upfront Sweet, average score” value is given as 0.4. Further, the “Volatile Off-Note, average score” value in assay [4] (Table 16, 30 ppm) is on record as 0.

As for `C[C@H](CC[C@@H](O[C@@H]1O[C@H](CO[C@H]2O[C@H](CO)[C@H](O)[C@H](O)[C@H]2O)[C@@H](O)[C@H](O)[C@H]1O[C@@H]1O[C@H](CO)[C@@H](O)[C@H](O)[C@H]1O)C(C)(C)O)[C@H]1CC[C@@]2(C)[C@H]3CC=C4[C@@H](CC[C@H](O[C@@H]5O[C@H](CO[C@@H]6O[C@H](CO)[C@@H](O)[C@H](O)[C@H]6OC6O[C@H](CO)[C@@H](O)[C@H](O)[C@H]6O)[C@@H](O)[C@H](O)[C@H]5O)C4(C)C)[C@]3(C)[C@H](O)C[C@]12C` (stereo partly drawn) [Neomogroside], in assay [1] (Table 13, 25 ppm Neomogroside, 9 panelists), the “Total of sweetness ranks” value is 16. In addition, the “Total of sweetness ranks” value in assay [1] (Table 13, 30 ppm Neomogroside, 9 panelists) is reported as 29. Moreover, the “Average Score” value in assay [2] (30 ppm in 5% (w/v) sucrose) is 6.35. In addition, the Sweetness enhancer effect entry in assay [2] was “act as sweetness enhancers”. Further, in assay [3], the Taste description entry was “sweetness, but slightly bitter aftertaste” and the “Sweet quality compared to Luo Han Guo extract” value is reported as “better than Luo Han Guo extract in terms of sweet quality”. Further, in assay [4] (Table 16, 30 ppm), the “Astringent, average score” value is 0; the “Lingering Sweet, average score” value is recorded as 0.4; the “Overall Sweet, average score” value was found to be 1.4; the “Upfront Sweet, average score” value is given as 1. In addition, the “Volatile Off-Note, average score” value in assay [4] (Table 16, 30 ppm) is 0.

Take `OC[C@H]1O[C@@](CO)(O[C@H]2O[C@H](CO)[C@@H](O)[C@H](O)[C@H]2O)[C@@H](O)[C@@H]1O` [Sucrose]: the “Total of sweetness ranks” value in assay [1] (Table 6, 1% Sucrose reference, 10 panelists) was 33; in assay [1] (Table 6, 1.5% Sucrose reference, 10 panelists) it was 47; in assay [1] (Table 9, 0.5% Sucrose reference, 6 panelists), 8; in assay [1] (Table 9, 1% Sucrose reference, 6 panelists) it was 19; in assay [1] (Table 9, 1.5% Sucrose reference, 6 panelists), 29; in assay [1] (Table 10, Sucrose 0.5% reference, 7 panelists), 14. In addition, the “Total of sweetness ranks” value was determined as 23 in assay [1] (Table 10, Sucrose 1% reference, 7 panelists); 35 in assay [1] (Table 10, Sucrose 1.5% reference, 7 panelists); 8 in assay [1] (Table 11, Sucrose 0.5% reference, 7 panelists); 24 in assay [1] (Table 11, Sucrose 1% reference, 7 panelists); 35 in assay [1] (Table 11, Sucrose 1.5% reference, 7 panelists); 9 in assay [1] (Table 12, Sucrose 0.5% reference, 7 panelists). The “Total of sweetness ranks” value came to 17 in assay [1] (Table 12, Sucrose 1% reference, 7 panelists); 27 in assay [1] (Table 12, Sucrose 1.5% reference, 7 panelists); 15 in assay [1] (Table 13, 0.5% Sucrose reference, 9 panelists); 31 in assay [1] (Table 13, 1% Sucrose reference, 9 panelists); 44 in assay [1] (Table 13, 1.5% Sucrose reference, 9 panelists). Moreover, the “Sweetness rank by panelist” value is 4 and 5 in assay [1] (Table 6, 1.5% Sucrose reference); 3 and 2 and 4 in assay [1] (Table 9, 1% Sucrose reference); 5 and 4 in assay [1] (Table 9, 1.5% Sucrose reference); 5 in assay [1] (Table 10, Sucrose 1.5% reference); 1 and 2 in assay [1] (Table 11, Sucrose 0.5% reference); 4 and 2 and 3 in assay [1] (Table 11, Sucrose 1% reference). The “Sweetness rank by panelist” value is 5 in assay [1] (Table 11, Sucrose 1.5% reference); 2 and 3 in assay [1] (Table 12, Sucrose 1% reference); 3 and 4 in assay [1] (Table 12, Sucrose 1.5% reference); 3 and 4 and 2 in assay [1] (Table 13, 1% Sucrose reference); 5 and 4 in assay [1] (Table 13, 1.5% Sucrose reference).
